Counter-ions that a name gives are not always drawn. Like-named read-outs stand apart in the source and are kept apart here.

One data set deals with THP1 cells. Description: Assessment of cytotoxicity in THP1 monocyte cells (SYBR-14/PI staining, flow cytometry). Particulars: THP1 monocytes infected with L. donovani and L. infantum; 72 hours; concentrations as low as 50 μM. Here is the method: Thus, we proceeded to assess the cytotoxicity of four inventive compounds as well as miltefosine in the human monocytic cell line THP1.
Assessment of Cytotoxicity in THP1 Monocyte Cells.
As a quantitative measurement of the cell damage after incubation with different concentrations of drugs dual staining with SYBR-14 and PI (Molecular Probes, The Netherlands) was used followed by flow cytometry.
THP1 cell cultures were incubated at 1×10^6 cells/ml with different concentrations of the compounds ranging from 50 to 1.56 μM. After an incubation period of 72 hours approximately 4×10^6 cells were suspended in labeling buffer (10 mM HEPES, 150 mM NaCl, 10% BSA, pH 7.4) and 10 μg/ml PI and 0.1 mg/ml SYBR-14 were added. The cultures were incubated at 37° C. for 30 minutes before analysis by flow cytometry.
Cell samples were analyzed on an Epics Elite model flow cytometer (Coulter, Miami, Fla.). The green fluorescence of SYBR-14 and the red fluorescence of PI were excited at 488 nm. At least 10,000 cells were analyzed per sample and each staining experiment was repeated twice. Data analysis was performed on fluorescence intensities that excluded cell autofluorescence and cell debris.
THP1 monocytes infected with the appropriate Leishmania species were used for the evaluation of the leishmanicidal activity of the compounds against the intracellular amastigote stages of the parasite.
(In general: Flow cytometry measures light scatter and fluorescence of single cells or particles in a stream.)

The subject of data set [1] is promastigote forms of Leishmania donovani. Put plainly: In vitro antileishmanial activity in promastigote cultures (MTT), L. donovani. In kind it is cell-based, Leishmania donovani MHOM/IN/80/DD8/LEM 703. Particulars: promastigotes, 72 h incubation, mean ± SEM, n = 3-4 (each run in duplicate), read-out: IC50 (μM) L. donovani MON 703. As to the method:
(§1) Determination of in Vitro Antileishmanial Activity in Promastigote Cultures.
(§2) The effect of the phospholipids according to the present invention against the promastigote forms of Leishmania donovani and Leishmania infantum was evaluated using an MTT (3-(4,5-dimethylthiazol-2yl)-2,5-diphenyltetrazolium bromide)-based enzymatic method as a marker of cell viability and was compared with that of the ether phospholipid hexadecylphosphocholine (Miltefosine). Thus, promastigotes of Leishmania infantum MHOM/TN/80/IPT1/LEM 235 and Leishmania donovani MHOM/IN/80/DD8/LEM 703, were grown in RPMI 1640 supplemented with 10% FCS, L. glutamine and antibiotics, at 26° C. All new compounds were dissolved in DMSO to a final concentration of 9.625 mM and linear 3-fold dilutions were done in the culture medium. 25 μL of promastigote culture at 5×10^5 cells/mL were cultured in a 96-well flat-bottom plate (Costar 3696), and incubated with 25 μL of different drug concentrations at 26° C. After 72 h, 10 μL of 5 mg/mL MTT in PBS (SIGMA M2128) were added and incubation was continued for 3 h. The reaction was stopped by the addition of 50 μL of 50% isopropanol, 10% SDS under gentle shacking for 30 min. Absorbance was measured at 550 nm with reference at 620 nm in a TRITURUS microplate reader.

For data set [2], the system named is promastigote forms of Leishmania infantum. Put plainly: In vitro antileishmanial activity in promastigote cultures (MTT), L. infantum. In kind it is cell-based, Leishmania infantum MHOM/TN/80/IPT1/LEM 235. Particulars: promastigotes, 72 h incubation, mean ± SEM, n = 3-4 (each run in duplicate), read-out: IC50 (μM) L. infantum MON 235. Here is the method: as §1, §2

For another data set, the system named is cutaneous leishmaniasis. Particulars: phase I study; 100-150 mg for 3 weeks; cited from earlier work.
The test system of another data set is visceral leishmaniasis. Particulars: cited from earlier work.

Usually IC50 stands for the concentration at which inhibition is half-maximal. With `C[N+](C)(C)CCOP(=O)([O-])OCCCCCCCCCCC=C1CCCCC1` [Example 13, 1-{2-[(11-Cyclohexylideneundecyloxy)hydroxyphosphinyloxy]ethyl}-N,N,N-trimethylammonium inner salt], the “cytotoxic effect on THP1 cells (percentage of live THP1 cells, FIG. 1)” value in the data set with THP1 cells is given as “not observed”. The IC50 amounted to 2.4 ± 0.6 µM in data set [1] and 5.2 ± 1.5 µM in data set [2].

In the case of `C[N+](C)(C)CCOP(=O)([O-])OCCCCCCCCCCC=C1C2CC3CC(C2)CC1C3` [Example 19, 1-{2-[(11-Adamantylideneundecyloxy)hydroxyphosphinyloxy]ethyl}-N,N,N-trimethylammonium inner salt], the “cytotoxic effect on THP1 cells (percentage of live THP1 cells, FIG. 1)” value with THP1 cells is given as “not observed”. Besides, the values for the IC50 in data set [1] and in data set [2] were 3.16 ± 0.63 µM and 6.75 ± 2.4 µM, respectively.

Consider `CCCCCCCCCCCCCCCCOP(=O)([O-])OCC[N+](C)(C)C` [Miltefosine, hexadecylphosphocholine], for which the cure rate in the data set on cutaneous leishmaniasis was 94%. In the data set with visceral leishmaniasis (mice), the “effectiveness in treating mice infected with visceral leishmaniasis” value was “highly effective”. For the same compound, in the data set on visceral leishmaniasis (oral miltefosine vs subcutaneous pentostam, mice infected with visceral leishmaniasis), the “effectiveness of oral treatment relative to subcutaneous administration of pentostam” value was 600 fold. Also, the 50% inhibitory concentration (IC50) in data set [1] (Leishmania donovani) was 23.7 ± 4.07 µM; in data set [2] (Leishmania infantum), 22.6 ± 3.6 µM.
